“And” between values parts separate entries of the source, which are not always exact repeats. Equal values may be shown once.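 Five concentrations, 48 hours, 96-well plates. At the GI50, growth is halved. TGI denotes the concentration required for complete inhibition of growth.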 A value given as a limit tells only on which side of the number the result lay.

What all share (test): inhibition of tumour cell growth, NCI panel, 48 h
In test [1] the test system is SK-MEL-5 melanoma.
The subject of test [2] is U251 CNS.
Test [3] deals with SK-MEL-28 melanoma.
For test [4], the system named is OVCAR-3 ovarian.
Test [5] relates to HCT-116 colon.
Test [6] has as its system M14 melanoma.
Test [7] concerns SNB-75 CNS.
Test [8] deals with SNB-19 CNS.
Test [9] concerns OVCAR-8 ovarian.
Test [10] concerns MDA-MB-231 breast.

As to `Nc1n[n+]([O-])c2cc([N+](=O)[O-])ccc2[n+]1[O-]`, the TGI in test [1] was 20.6 µM; in test [2], 18.5 µM; in test [3] it was over 100 µM; in test [4], 15.2 µM; in [5] it was 16.5 µM; in test [6], 20.4 µM. Further, the TGI in [7] is 83.4 µM; in test [8], 31.1 µM; in test [9], 20.5 µM; in test [10], 44.7 µM.
With `CC1(C)OB(c2ccc(N(CCOS(C)(=O)=O)CCOS(C)(=O)=O)cc2)OC1(C)C`, the GI50 in test [1] is 16.2 µM; in [2], 8.66 µM; in test [3], 34 µM; in test [4] it was 18.9 µM; in test [5], 10.5 µM; in test [6], 3.01 µM. The GI50 is 22.1 µM in test [7], 31.3 µM in [8], 21.7 µM in [9] and over 43.5 µM in test [10]. Further, the TGI in test [1] was 38.2 µM; in [2], 34.7 µM; in test [3], over 83.7 µM; in test [4], 45.3 µM; in test [5] it was 24.7 µM; in test [6], 13.7 µM. Moreover, the TGI is 49.3 µM in test [7], over 100 µM in test [8], over 92.3 µM in test [9] and over 65.2 µM in test [10].
Turning to `N#Cc1ncc(C(Cl)Cl)nc1Cl`, the TGI was 3.35 µM in test [1]; 3.78 µM in test [2]; 4.2 µM in test [3]; 4.59 µM in [4]; 3.04 µM in test [5]; 2.82 µM in test [6]. For the same compound, the TGI in test [7] was 6.64 µM; in [8] it was over 10 µM; in test [9], 5.16 µM; in test [10], 3.17 µM.
For `C[C@H]1CCC/C=C/C2CC(OC(=O)CN(C)C)CC2C(OC(=O)CN(C)C)/C=C/C(=O)O1` (some centres undefined), the GI50 is 0.0982 µM in [1]; 0.861 µM in test [2]; 0.472 µM in test [3]; 0.428 µM in test [4]; 0.762 µM in test [5]; 0.178 µM in test [6]. Also, the GI50 was 0.0567 µM in test [7], 2.76 µM in test [8], 0.308 µM in [9] and 0.148 µM in [10]. Besides, the TGI is 0.243 µM in test [1]; 46.8 µM in test [2]; over 100 µM in test [3]; 3.2 µM in [4]; 16.7 µM in [5]; 4.65 µM in test [6]. Besides, the values for the TGI in [8], in [9] and in [10] were over 100 µM, over 22.9 µM and 0.806 µM, respectively.
On to `Cc1nnc(C[C@@H]2C=C(c3ccc(Cl)cc3)c3ccccc3-n3c(C)nnc32)o1`, for which the GI50 in test [1] is 1.81 µM; in [2], 4.81 µM; in test [3], 2.24 µM; in [4], 1.08 µM; in [5], 0.472 µM; in [6] it was 0.529 µM. The GI50 in [7] is 0.048 µM; in test [8] it was 5.53 µM; in [9], 2.94 µM; in test [10] it was 1.5 µM. Further, the TGI was 19.7 µM in test [1]; over 76.1 µM in test [2]; over 100 µM in [3]; 19.8 µM in test [4]; 31.9 µM in [5]; 56.7 µM in [6]. Further, the TGI is 47.3 µM in test [7], over 100 µM in [8], over 67.4 µM in test [9] and over 100 µM in test [10].
Take `COC(=O)c1cc(-c2ccc3ccccc3c2)[nH]c(=O)c1C#N`: the TGI in test [1], in test [2], in [3], in [4], in test [5] and in test [6] was over 100 µM each time. Further, the TGI in test [7], in test [8], in [9] and in [10] was over 100 µM throughout.
Take `CC/C=C\C[C@H]1C/C=C2/C(=O)C=C[C@H]2C/C=C\CCCC(=O)O1`: the GI50 in test [1] is 1.74 µM; in test [2], 1.95 µM; in [3], 3.1 µM; in test [4], 1.65 µM; in [5] it was 1 µM; in test [6], 1.69 µM. Further, the GI50 is 1.56 µM in test [7], 5.17 µM in [8], 2 µM in test [9] and 3.23 µM in [10]. Also, the TGI was 7.27 µM in test [1]; 7.09 µM in [2]; 11.4 µM in test [3]; 5.94 µM in test [4]; 2.55 µM in [5]; 8.34 µM in [6]. The TGI in test [7] was 8.74 µM; in [8] it was 11.2 µM; in [9], 11.7 µM; in test [10], 14.8 µM.
For `Cc1cc(S(=O)(=O)/N=C(\N)Nc2cccc(O)c2)c(SCc2ccccc2)cc1Cl`, the GI50 in [1] was 12.1 µM; in test [2], 18.9 µM; in [3], 14.1 µM; in [4], 10.3 µM; in [5], 12.6 µM; in [6] it was 11.1 µM. Besides, the GI50 in test [7] was 10.8 µM; in [8], 20.6 µM; in test [9], 24.3 µM; in [10], 16.8 µM. The TGI stood at 29.6 µM in test [1]; 48.6 µM in test [2]; 31 µM in [3]; 26.2 µM in [4]; 34 µM in test [5]; 26.7 µM in test [6]. For the same compound, the TGI turned out to be 26.5 µM in test [7], 58.9 µM in [8], 87.1 µM in test [9] and 41.2 µM in [10].
As to `COc1ccc(-c2nn(-c3cccc(Cl)c3)cc2/C=C2\NC(=S)N(c3ccc(Cl)cc3)C2=O)cc1`, the GI50 is 4.22 µM in [1]; 2.86 µM in [2]; 4.1 µM in test [3]; 5.54 µM in test [4]; 3.18 µM in test [5]; 4.39 µM in test [6]. Further, the GI50 in test [7] is 0.95 µM; in test [8], 6.54 µM; in test [9], 2.62 µM; in [10], 3.33 µM. The TGI turned out to be 11 µM in test [1]; 6.99 µM in test [2]; 7.97 µM in [3]; 12.9 µM in test [4]; 7.75 µM in test [5]; 10.2 µM in test [6]. In addition, the TGI in test [7] is 4.47 µM; in [8], over 25 µM; in test [9], 7.02 µM; in [10], 11.5 µM.
Regarding `CCN(C(=O)N1CCN(c2cc3c(cc2F)c(=O)c(C(=O)O)cn3C2CC2)CC1)c1nc(-c2ccccc2)cs1`, the GI50 was 3.63 µM in [1]; 3.25 µM in test [2]; 3 µM in [3]; 2.61 µM in test [4]; 2.64 µM in test [5]; 3.16 µM in [6]. The GI50 in test [7] is 3.66 µM; in test [8], 3.94 µM; in [9] it was 3.33 µM; in test [10], 2.11 µM. For the same compound, the TGI is 55.6 µM in test [1]; 22.9 µM in test [2]; over 100 µM in [3]; 9.83 µM in [4]; over 100 µM in test [5]; over 100 µM in test [6]. In addition, the TGI in test [7] is 16.4 µM; in test [8] it was over 100 µM; in test [9] it was over 100 µM; in test [10] it was 5.92 µM.
`COc1ccc(-n2cc(-c3cc(OC)c(OC)c(OC)c3)nc2SCc2ccc(Cl)cc2)cc1OC`: the GI50 in test [1] was 41.7 µM; in test [2], over 100 µM; in [3], over 100 µM; in [4] it was over 100 µM; in test [5], over 100 µM; in test [6], over 100 µM. Further, the GI50 in [7] is 9.82 µM; in test [8], over 100 µM; in [9] it was over 100 µM; in test [10], over 100 µM. Also, the TGI in [1], in [2], in test [3], in test [4], in test [5] and in test [6] was over 100 µM in each case. Further, the TGI in test [7], in test [8], in test [9] and in test [10] was over 100 µM in each case.
Take `O=C(NC1CCN(Cc2ccccc2)CC1)c1cc(-c2cccnc2)nc2ccc(Cl)cc12`: the GI50 in test [1] is 3.91 µM; in [2], 6.94 µM; in [3], 16.3 µM; in [4], 11.3 µM; in [5] it was 5.47 µM; in test [7], 2.18 µM. Further, the GI50 in [8] was 11.6 µM; in [9], 10.4 µM; in test [10], 2.47 µM. The TGI in [1] is over 100 µM; in test [2], 22.5 µM; in [3], over 100 µM; in test [4], 28 µM; in test [5] it was 26.4 µM; in test [7], 12.7 µM. Further, the TGI in test [8] stood at 42.3 µM; in test [9], 35.4 µM; in test [10] it was 13.1 µM.
`CC[C@@]1(O)C(=O)OCc2c1cc1n(c2=O)Cc2cc3cc(Cl)ccc3nc2-1`: the GI50 in [1] is 0.0082 µM and 0.0181 µM; in [2], 0.00197 µM; in test [3] it was 0.0542 µM and 0.0355 µM; in test [4] it was 0.0456 µM and 0.137 µM; in test [6], 0.00467 µM; in test [7], 0.00253 µM. The GI50 is 0.00345 µM in [8]; 0.00117 µM and 0.0112 µM in [9]; 0.094 µM in test [10]. For the same compound, the TGI in [1] was 0.0501 µM and 0.0636 µM; in [2], 0.0234 µM; in [3] it was 4.52 µM and 8.65 µM; in test [4], 0.274 µM and 0.452 µM; in test [6], 0.0853 µM and 0.0476 µM; in [7], 0.053 µM and 0.0414 µM. Besides, the TGI is 0.866 µM and 3.82 µM in test [8]; 0.109 µM and 0.203 µM in test [9]; 4.69 µM in [10].
In the case of `Cc1cc2c(cc1Cl)SC(N(c1ccccc1Cl)S(=O)(=O)c1ccc(Br)s1)=NS2(=O)=O`, the GI50 in [1] was 13.8 µM; in test [2] it was 16.5 µM; in test [3] it was 15.2 µM; in test [4], 18.2 µM; in [5] it was 16.5 µM; in [6] it was 18.5 µM. The GI50 in [7] is 17.3 µM; in test [8], 19.9 µM; in [10] it was 18.5 µM. For the same compound, the TGI in test [1] worked out at 26.7 µM; in [2] it was 46.3 µM; in test [3], 29.6 µM; in test [4], 60.1 µM; in test [5], 34.3 µM; in test [6] it was 47.3 µM. Also, the figures for the TGI in [7], in test [8] and in test [10] were 48.7 µM, 68.5 µM and 61.8 µM, respectively.
Regarding `C[C@@H](O)[C@@H](C)Oc1nc(Nc2ccc(S(=N)(=O)C3CC3)cc2)ncc1C(F)(F)F` (some centres undefined), the GI50 is 0.0266 µM in test [1]; 0.0252 µM in test [2]; 0.0294 µM in test [3]; 0.018 µM in test [4]; 0.0228 µM in [5]; 0.0349 µM in test [6]. The GI50 in test [7] is 0.0162 µM; in [8], 0.0309 µM; in test [10], 0.0336 µM. Further, the TGI is 0.108 µM in [1]; 13.2 µM in test [2]; 0.178 µM in test [3]; 18.6 µM in test [4]; over 100 µM in test [5]; 0.316 µM in test [6]. In addition, the TGI is 0.0554 µM in test [7], 43 µM in test [8] and over 100 µM in test [10].
Consider `N#C/C(=C\c1ccc(O)c(O)c1)C(=O)NCc1ccc(C(F)(F)F)cc1`, for which the GI50 in test [1] was 8.09 µM; in test [2], 5.67 µM; in [3], 16.9 µM; in test [4] it was 0.507 µM; in [5], 2.58 µM; in [7] it was 13.3 µM. Besides, the results for the GI50 in test [8], in test [9] and in [10] were 11.2 µM, 10.1 µM and 2.08 µM, respectively. For the same compound, the TGI in test [1] is 24.4 µM; in test [2], 28.9 µM; in test [3], 57 µM; in test [4], 1.11 µM; in test [5], 11.4 µM; in test [7], 55.7 µM. The TGI in test [8] was over 68 µM; in [9] it was over 49.7 µM; in test [10], 18.1 µM.

The record behind these values is PubChem BioAssay (NCI).
